From patent publication US20120095067A1, “PHARMACEUTICAL COMPOSITION CONTAINING CARBOXYLOSARTAN AND A PRODUCTION METHOD THEREFOR” (JIN YANG PHARM. CO., LTD., priority 2009, published 2012)

What was measured:
[1] = Dissolution experiment, paddle method, 900 ml medium, 50 rpm; format: physicochemical
Description: By using the prepared Comparative example 1, dissolution experiments was made in a buffer having a pH of 1.2 (prepared by mixing 2.0 g of sodium chloride with 7.0 ml of hydrochloric acid and adding purified water until it totals 1 liter), a buffer having a pH of 4.0 (prepared by mixing 0.05 mol/L acetic acid solution with 0.05 mol/L sodium acetate solution (41:9) and adjusting a pH to 4.0), a buffer having a pH of 6.8 (prepared by mixing 250 ml of 0.2 mol/L potassium dihydrogen phosphate test solution with 118 ml of 0.2 mol/L sodium hydroxide test solution and adding water until it totals 1 liter), and purified water. In this instance, a paddle method was used, an amount of a dissolution medium was 900 ml, and a paddle rotation rate was 50 rpm. Like Comparative example 1, the dissolution of Examples 1-4 in a buffer having a pH of 1.2 was evaluated. Like Example 1, the dissolution of Examples 5-10 in a buffer having a pH of 1.2 was evaluated. Like Comparative example 1, the dissolution of Example 9 in different dissolution media was evaluated.

[2] = relative to losartan; cited from earlier work

CCCCc1nc(Cl)c(C(=O)O)n1Cc1ccc(-c2ccccc2-c2nnn[nH]2)cc1 [losartan carboxylic acid, 2-butyl-4-chloro-1-[(2′-(1H-tetrazol-5-yl)[1,1′-biphenyl]-4-yl)methyl]-1H-imidazole-5-carboxylic acid]
behaviour on contact with purified water or a buffer [1]: gelled | half life compared with losartan [2]: longer
